Reference: patent publication US20250388604A1, “Compounds and Their Use as PDE4 Activators” (Mironid Limited, priority 2022, published 2025)

Experiments:
[1] = system: m-IMCD3 cells expressing PDE4 long forms; experiment: cAMP levels in PGE2-stimulated 3D m-IMCD3 cell culture media; format: cell-based; details: Mus musculus, mIMCD3, compared to 100% for (DMSO + PGE2), read-out: cAMP level (% of PGE2-stimulated); for activity at 3 µM: 3 μM test compound; for activity at 10 µM: 10 μM test compound
Experimental: HEK 293 and MDCK cells (Public Health England, Cell Culture Collections) were maintained in Dulbecco's Modified Eagle's Medium (DMEM) supplemented with 10% (v/v) fetal bovine serum (FBS) (Seralab), 2 mM L-glutamine and 100 U/mL penicillin streptomycin cocktail (ThermoFisher); termed complete media. Clonal HEK 293 cell lines were maintained in complete media supplemented with 0.6 mg/ml G418 (Enzo Life Sciences). Mouse inner medullary collecting duct (m-IMCD3) cells [American Type Culture Collection (ATCC)] were maintained in media consisting of DMEM/Hams F-12 50/50 Mix (DMEM F12; Corning) supplemented with penicillin streptomycin cocktail (100 U/mL) and FBS (10% v/v) (DMEM F12-10% FBS).
Activation of intracellular PDE4 long forms leads to a reduction of both intracellular cAMP and externalised cAMP (Omar et al., PNAS 116: 13320-13329, 2019). This reduction may be measured in the cell culture media supernatant of 3D cystic cell cultures, such as in the m-IMCD3 cell cyst suppression assay described in Experiment 3.
Following the completion of the m-IMCD3 cell cyst suppression assay (Experiment 3), the cAMP level in the assay media from individual or pooled assay wells was measured using a cAMP ELISA kit (Enzo Life Sciences) or a LANCE Ultra cAMP kit (PerkinElmer) according to the manufacturer's instructions.

m-IMCD3 cells = experiment: Inhibition of PGE2-stimulated in vitro cyst formation in m-IMCD3 cells; format: cell-based, mouse; details: Mus musculus, mIMCD3, 144 h, mean cyst area, 100% for (DMSO + PGE2) and 0% for DMSO control, 6 days of culture; for activity at 3 µM: read-out: % Cyst area after incubation with 3 μM test compound; for activity at 10 µM: read-out: % Cyst area after incubation with 10 μM test compound
Procedure, shortened: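 m-IMCD3 cells embedded in collagen I/Matrigel 3D culture; 18–24 h after plating, compound (0.1% DMSO final) plus PGE2 (100 nM final) added, replenished after 2 or 3 days. After 6 days, z-stack imaging gave mean cyst area, normalized to DMSO+PGE2 (100%) and DMSO (0%).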

Compound | activity at 3 µM [1] | activity at 3 µM (m-IMCD3 cells) | activity at 10 µM (m-IMCD3 cells) | activity at 10 µM [1]
CC1(C)CN(C(=O)CC2CCC3(CC2)COC3)Cc2sc(N3C4CCC3CNC4)nc21 [Example 260, 1-(2-(3,8-diazabicyclo[3.2.1]octan-8-yl)-7,7-dimethyl-6,7-dihydrothiazolo[5,4-c]pyridin-5(4H)-yl)-2-(2-oxaspiro[3.5]nonan-7-yl)ethan-1-one] | 52% | 10% |  | 
O=C(CC1CCCC1)N1CCc2nc(N3C4CCCC3CNC4)sc2C1 [Example 273, 1-(2-(3,9-diazabicyclo[3.3.1]nonan-9-yl)-6,7-dihydrothiazolo[5,4-c]pyridin-5(4H)-yl)-2-cyclopentylethan-1-one] | 58% | -11% |  | 
O=C(CC1CCCC1)N1CCn2nc(N3C4CCC3CNC4)cc2C1 [Example 127, 1-(2-(3,8-diazabicyclo[3.2.1]octan-8-yl)-6,7-dihydropyrazolo[1,5-a]pyrazin-5(4H)-yl)-2-cyclopentylethan-1-one] | 42% |  | 3% | 
CC(C)(C)CC(=O)N1CCc2sc(N3C4CCC3CNC4)nc2C1 [Example 282, 1-(2-(3,8-diazabicyclo[3.2.1]octan-8-yl)-6,7-dihydrothiazolo[4,5-c]pyridin-5(4H)-yl)-3,3-dimethylbutan-1-one] | 35% | 3% |  | 
O=C(N[C@H]1CCOc2ccccc21)N1CCc2nc(N3C4CCC3CNC4)sc2C1 [Example 293, 2-(3,8-diazabicyclo[3.2.1]octan-8-yl)-N—((S)-chroman-4-yl)-6,7-dihydrothiazolo[5,4-c]pyridine-5(4H)-carboxamide] | 36% | 4% |  | 
O=C(NC1CCCC1)N1Cc2nc(N3C4CCC3CNC4)sc2C1 [Example 68, 2-(3,8-diazabicyclo[3.2.1]octan-8-yl)-N-cyclopentyl-4,6-dihydro-5H-pyrrolo[3,4-d]thiazole-5-carboxamide] | 19% |  | -4% | 
O=C(c1ccc(C(F)(F)F)nc1)N1CCc2nc(N3C4CCC3CNC4)sc2C1 [Example 241, (2-(3,8-diazabicyclo[3.2.1]octan-8-yl)-6,7-dihydrothiazolo[5,4-c]pyridin-5(4H)-yl)(6-(trifluoromethyl)pyridin-3-yl)methanone] | 43% | 4% |  | 
O=S(=O)(Cc1ccc(F)cc1)N1CCc2nc(N3C4CCC3CNC4)sc2C1 [Example 285, 2-(3,8-diazabicyclo[3.2.1]octan-8-yl)-5-((4-fluorobenzyl)sulfonyl)-4,5,6,7-tetrahydrothiazolo[5,4-c]pyridine] | 35% | -3% |  | 
CCN1CC2CCC(C1)N2c1nc2c(s1)CN(C(=O)NCc1ccc(F)cc1)CC2 [Example 300, 2-(3-ethyl-3,8-diazabicyclo[3.2.1]octan-8-yl)-N-(4-fluorobenzyl)-6,7-dihydrothiazolo[5,4-c]pyridine-5(4H)-carboxamide] | 48% | -3% |  | 
O=C(CC1CCCC1)N1CCc2nc(N3C4CCC3CNC4)sc2C1 [Example 1, 1-(2-(3,8-diazabicyclo[3.2.1]octan-8-yl)-6,7-dihydrothiazolo[5,4-c]pyridin-5(4H)-yl)-2-cyclopentylethan-1-one] |  |  | -5% | 14%
CC(C)C(=O)N1Cc2sc(N3C4CCC3CNC4)nc2CC1(C)C [Example 268, 1-(2-(3,8-diazabicyclo[3.2.1]octan-8-yl)-6,6-dimethyl-6,7-dihydrothiazolo[5,4-c]pyridin-5(4H)-yl)-2-methylpropan-1-one] | 39% | 1% |  | 
O=C([C@H](O)C1CCCC1)N1CCc2nc(N3C4CCC3CNC4)sc2C1 [Example 171, (2R)-1-(2-(3,8-diazabicyclo[3.2.1]octan-8-yl)-6,7-dihydrothiazolo[5,4-c]pyridin-5(4H)-yl)-2-cyclopentyl-2-hydroxyethan-1-one] | 56% | 6% |  | 
CCN1CCN(c2nc3c(s2)CN(C(=O)N[C@H]2CCOc4ccccc42)CC3)CC1 [Example 297, (S)—N-(chroman-4-yl)-2-(4-ethylpiperazin-1-yl)-6,7-dihydrothiazolo[5,4-c]pyridine-5(4H)-carboxamide] | 45% | 9% |  | 
CC1(CC(=O)N2CCn3nc(N4C5CCC4CNC5)cc3C2)CCCC1 [Example 128, 1-(2-(3,8-diazabicyclo[3.2.1]octan-8-yl)-6,7-dihydropyrazolo[1,5-a]pyrazin-5(4H)-yl)-2-(1-methylcyclopentyl)ethan-1-one] | 50% |  | -2% | 
O=C(CC1CCCC1)N1CCc2nc(N3CC4CCC(C3)N4)sc2C1 [Example 276, 1-(2-(3,8-diazabicyclo[3.2.1]octan-3-yl)-6,7-dihydrothiazolo[5,4-c]pyridin-5(4H)-yl)-2-cyclopentylethan-1-one] | 41% | 13% |  | 
O=C(CC1CCCC1)N1Cc2nc(N3C4CCC3CNC4)sc2C1 [Example 66, 1-(2-(3,8-diazabicyclo[3.2.1]octan-8-yl)-4,6-dihydro-5H-pyrrolo[3,4-d]thiazol-5-yl)-2-cyclopentylethan-1-one] | 36% |  | -5% | 
O=C(OC1CCCC1)N1CCc2nc(N3C4CCC3CNC4)sc2C1 [Example 244, cyclopentyl 2-(3,8-diazabicyclo[3.2.1]octan-8-yl)-6,7-dihydrothiazolo[5,4-c]pyridine-5(4H)-carboxylate] | 40% | 6% |  | 
CC(C)N1CC2CCC(C1)N2c1nc2c(s1)CN(C(=O)CC1CCCC1)CC2 [Example 290, 2-cyclopentyl-1-(2-(3-isopropyl-3,8-diazabicyclo[3.2.1]octan-8-yl)-6,7-dihydrothiazolo[5,4-c]pyridin-5(4H)-yl)ethan-1-one] | 35% | -9% |  | 
CC(C)(C)CC(=O)N1CCc2nc(N3C4CCC3CNC4)sc2C1 [Example 10, 1-(2-(3,8-diazabicyclo[3.2.1]octan-8-yl)-6,7-dihydrothiazolo[5,4-c]pyridin-5(4H)-yl)-3,3-dimethylbutan-1-one] |  |  | -3% | 38%
O=C(CC1CCCC1)N1CCc2nc(N3C[C@H]4C[C@@H]3CN4)sc2C1 [Example 279, 1-(2-((1R,4R)-2,5-diazabicyclo[2.2.1]heptan-2-yl)-6,7-dihydrothiazolo[5,4-c]pyridin-5(4H)-yl)-2-cyclopentylethan-1-one] | 27% | 19% |  | 
CC(C)N1CC2CCC(C1)N2c1nc2c(s1)CN(C(=O)COc1ccc(F)cc1)CC2 [Example 298, 2-(4-fluorophenoxy)-1-(2-(3-isopropyl-3,8-diazabicyclo[3.2.1]octan-8-yl)-6,7-dihydrothiazolo[5,4-c]pyridin-5(4H)-yl)ethan-1-one] | 48% | -7% |  | 
CCN1CC2CCC(C1)N2c1nc2c(s1)CN(C(=O)COc1ccc(F)cc1)CC2 [Example 302, 1-(2-(3-ethyl-3,8-diazabicyclo[3.2.1]octan-8-yl)-6,7-dihydrothiazolo[5,4-c]pyridin-5(4H)-yl)-2-(4-fluorophenoxy)ethan-1-one] | 48% | 5% |  | 
O=C(CC1CCCC1)N1CCc2nc(N3CC4CCCC(C3)N4)sc2C1 [Example 280, 1-(2-(3,9-diazabicyclo[3.3.1]nonan-3-yl)-6,7-dihydrothiazolo[5,4-c]pyridin-5(4H)-yl)-2-cyclopentylethan-1-one] | 33% | -10% |  | 
CC(C)CC(=O)N1Cc2sc(N3C4CCC3CNC4)nc2C(C)(C)C1 [Example 257, 1-(2-(3,8-diazabicyclo[3.2.1]octan-8-yl)-7,7-dimethyl-6,7-dihydrothiazolo[5,4-c]pyridin-5(4H)-yl)-3-methylbutan-1-one] | 36% | -3% |  | 
CCN1CC2CCC(C1)N2c1nc2c(s1)CN(C(=O)N[C@H]1CCOc3ccccc31)CC2 [Example 294, N—((S)-chroman-4-yl)-2-(3-ethyl-3,8-diazabicyclo[3.2.1]octan-8-yl)-6,7-dihydrothiazolo[5,4-c]pyridine-5(4H)-carboxamide] | 39% | -5% |  | 
CCN1CC2CCC(C1)N2c1nc2c(s1)CN(S(=O)(=O)Cc1ccc(F)cc1)CC2 [Example 286, 2-(3-ethyl-3,8-diazabicyclo[3.2.1]octan-8-yl)-5-((4-fluorobenzyl)sulfonyl)-4,5,6,7-tetrahydrothiazolo[5,4-c]pyridine] | 52% | -2% |  | 
